According to PMC12383145, “Fluorescent Peptides Internalize HeLa Cells and Kill Multidrug-Resistant Clinical Bacterial Isolates” (Antibiotics, 2025):
≈ marks a conversion by molar mass, not a printed value. Where “and” joins values, the source holds several entries; their conditions need not be identical. Equal entries are not always repeated. Where two headings read alike, the source gives them in different places. Positions of bridges follow the written chain, without caps; N, C: chain ends. Non-standard residues stand in square brackets, D forms with d. Residues, ends and D or L forms follow the SMILES beside them. Chains are numbered I, II in the order given. *: point of attachment. 5FAM = O=C1OC2(c3ccc(O)cc3Oc3cc(O)ccc32)c2ccc(C(=O)*)cc21; hPhe = N[C@@H](CCc1ccccc1)C(=O)O; 2Abz = Nc1ccccc1C(=O)O; Ahx = NCCCCCC(=O)O

Assays:
Type in all cases: cell-based
[1] = system: S. aureus clinical isolate 11719
[2] = MTT cytotoxicity assay in HeLa cells; details: human
Experimental: MTT assays were conducted in HeLa cells to evaluate the effect of fluorescent probe incorporation on the in vitro cytotoxic activity of the parent non-conjugated peptides. The cytotoxic effect of peptides 1, Abz-1 RhB-1, 2, and RhB-2 in HeLa cells was peptide concentration-dependent, with the highest anticancer activity observed at 200 µg/mL. Incorporation of 2-Abz and RhB at the N-terminal end reduced cytotoxic activity, while the binding of 2-Abz at the C-terminal end or FAM at the N-terminal end drastically diminished anticancer activity (Table 4).

[3] = system: E. faecalis clinical isolate 179
Experimental: (§1) E. coli isolates 1004 (susceptible), 129797 (resistant), and 301755 (MDR) were selected for evaluation. Isolate 1004 was sensitive to all antibiotics tested. […] These findings identify it as a multidrug-resistant (MDR) strain and an extended-spectrum beta-lactamase (ESBL)-producing bacterium. For S. aureus, isolates 109095, 117719, and 124653 were evaluated. All three were resistant to penicillin, indicating beta-lactamase production mediated by the blaZ gene. Studies have shown that up to 90% of S. aureus isolates worldwide are penicillin-resistant, which implies that this antibiotic is ineffective in infections caused by this pathogen. […] Isolate 124653 was resistant to penicillin, tetracycline, and erythromycin, with the latter belonging to the group of macrolides, antibiotics that inhibit protein synthesis through interaction with the 50S […] subunit. For E. faecalis three isolates were selected: strains 213 (sensitive to all the antibiotics tested), strain 82 (resistant to streptomycin), and strain 179 (resistant to gentamicin). These clinical isolates were selected to assess the antimicrobial activity of the peptide RWQWRWQWR and its analogues conjugated to fluorescent molecules in strains against strains with susceptibility profiles.
(§2) The analysis of synthesized peptides in ATCC reference strains and susceptible, resistant, and multidrug-resistant (MDR) clinical isolates was performed. The clinical isolates were obtained from the National Cancer Institute collection and were previously identified and antibiogrammed using the VITEK system. Additionally, the strains were characterized by MALDI-TOF. The strains were re-primed onto trypticase soy agar and subsequently preserved in Brain–Heart Infusion (BHI) broth containing 20% glycerol. For the MIC and MBC assays, the strains were reactivated and cultured in BHI until they reached their exponential growth phase.
(§3) The minimum inhibitory concentration (MIC) of the peptides was determined by the broth microdilution technique, according to the Clinical and Laboratory Standards Institute (CLSI) guidelines, as previously described. Briefly, bacterial strains were incubated in BHI broth at 37 °C until they reached the exponential growth phase, and inocula were adjusted to 5 × 10^6 CFU/mL using calibration curves. Serial dilutions of the peptides to be evaluated in 96-well plates were made in 90 µL of Mueller Hinton broth at concentrations ranging from 200 to 6.25 µg/mL, and 10 µL of the inoculum adjusted to 5 × 10^6 CFU/mL was added. Finally, the plates were incubated at 37 °C for 24 h, and the absorbance at 620 nm was read. As a negative control, CMH, distilled water, and 10 µL of inoculum were used; for the positive control, vancomycin was used for Gram-positive strains and ciprofloxacin for Gram-negative strains at the MICs dictated by the CLSI; as a technical control, CMH with peptone water was used, and for the growth control, CMH was used with 10 µL of inoculum.
(§4) To determine the minimum bactericidal concentration (MBC), the 96-well plates where the MIC was determined were used as a starting point. From these, an aliquot of the controls and those wells where no apparent bacterial growth was observed were spotted onto trypticase soy agar plates. The plates were incubated at 37 °C for 24 h, and the reading was taken, identifying the lowest concentration of the peptide where there was no bacterial growth as the MBC.

[4] = system: E. coli clinical isolate 1004 (susceptible)
Experimental: as §1, §2, §3, §4

[5] = system: E. faecalis clinical isolate 82
Experimental: as §1, §2, §3, §4

[6] = system: E. coli clinical isolate 301755 (MDR)
Experimental: as §1, §2, §3, §4

[7] = system: E. coli clinical isolate 129797 (resistant)
Experimental: as §1, §2, §3, §4

[8] = system: E. faecalis clinical isolate 213
Experimental: as §1, §2, §3, §4

[9] = system: S. aureus clinical isolate 124653
Experimental: as §1, §2, §3, §4

[10] = system: S. aureus clinical isolate 109095
Experimental: as §1, §2, §3, §4

Hemolysis assay = assay: Hemolysis assay
Experimental: (§5) Whole blood was collected into EDTA tubes and centrifuged at 2500 rpm for 10 min. The plasma and buffy coat were removed, and the erythrocytes were washed three times with 0.9% saline to yield a 4% cell suspension. In 96-well plates, 100 µL of peptide dilutions (6.25–200 µg/mL) were prepared in triplicate, and 100 µL of the erythrocyte suspension was added (final hematocrit 2%). Plates were incubated at 37 °C for 2 h, and then centrifuged again at 2500 rpm for 10 min. A 100 µL aliquot of the supernatant was transferred to a fresh plate, and absorbance was measured at 450 nm. Saline and 1× Triton X-100 served as the negative and positive controls, respectively. Hemolysis (%) was calculated as follows: %hemolysis=treatment absorbance−saline absorbance/1×triton absorbance−saline absorbance

erythrocytes = assay: Hemolysis assay; details: 2 h
Experimental: as §5

P. aeruginosa ATCC 27853 = system: P. aeruginosa ATCC 27853
Experimental: as §3, §4

E. coli ATCC 25922 = system: E. coli ATCC 25922
Experimental: as §3, §4

E. faecalis ATCC 29212 = system: E. faecalis ATCC 29212
Experimental: as §3, §4

[11] = system: K. pneumoniae ATCC 700603
Experimental: as §3, §4

S. aureus ATCC 25923 = details: ATCC 25923, 24 h
Experimental: as §3, §4

[12] = system: clinical isolates of E. coli; details: stated for all three E. coli clinical isolates
Experimental: as §1, §2, §3, §4

[13] = clinical isolate 1004 (susceptible, 24 h)
[14] = clinical isolate 301755 (MDR, 24 h)
[15] = clinical isolate 129797 (resistant, 24 h)
[16] = S. aureus clinical isolate 11719
[17] = E. faecalis clinical isolate 179
[18] = E. faecalis clinical isolate 82
[19] = E. coli clinical isolate 301755
[20] = E. coli clinical isolate 129797
[21] = E. faecalis clinical isolate 213
[22] = S. aureus clinical isolate 124653
[23] = S. aureus clinical isolate 109095

## N=C(N)NCCC[C@H](NC(=O)[C@H](Cc1c[nH]c2ccccc12)NC(=O)[C@H](CCC(N)=O)NC(=O)[C@H](Cc1c[nH]c2ccccc12)NC(=O)[C@H](CCCNC(=N)N)NC(=O)[C@H](Cc1c[nH]c2ccccc12)NC(=O)[C@H](CCC(N)=O)NC(=O)[C@H](Cc1c[nH]c2ccccc12)NC(=O)[C@H](CCCNC(=N)N)NC(=O)c1ccc2c(c1)C(=O)OC21c2ccc(O)cc2Oc2cc(O)ccc21)C(N)=O [FAM-1, FAM-RWQWRWQWR] (5FAM-RWQWRWQWR-NH2)
[1]; clinical isolate 11719, 24 h
  Minimal bactericidal concentration (MBC): > 108 µM
  Minimal inhibitory concentration (MIC): > 108 µM
[2]
  IC50: > 200 µg/mL and > 108 µM
[3]; clinical isolate 179, 24 h
  Minimal bactericidal concentration (MBC): > 108 µM
  Minimal inhibitory concentration (MIC): > 108 µM
[4]; [13]
  Minimal bactericidal concentration (MBC): > 108 µM
  Minimal inhibitory concentration (MIC): 108 µM (≈ 199 µg/mL)
[5]; clinical isolate 82, 24 h
  Minimal bactericidal concentration (MBC): > 108 µM
  Minimal inhibitory concentration (MIC): 54 µM (≈ 99.6 µg/mL)
[6]; [14]
  Minimal bactericidal concentration (MBC): > 108 µM
  Minimal inhibitory concentration (MIC): 108 µM (≈ 199 µg/mL)
[7]; [15]
  Minimal bactericidal concentration (MBC): > 108 µM
  Minimal inhibitory concentration (MIC): > 108 µM
[8]; clinical isolate 213, 24 h
  Minimal bactericidal concentration (MBC): > 108 µM
  Minimal inhibitory concentration (MIC): 108 µM (≈ 199 µg/mL)
[9]; clinical isolate 124653, 24 h
  Minimal bactericidal concentration (MBC): > 108 µM
  Minimal inhibitory concentration (MIC): > 108 µM
[10]; clinical isolate 109095, 24 h
  Minimal bactericidal concentration (MBC): > 108 µM
  Minimal inhibitory concentration (MIC): > 108 µM
Hemolysis assay; Percentage of hemolysis
  hemolysis at 2 h: 17%
erythrocytes
  Therapeutic index: 0.25
P. aeruginosa ATCC 27853; ATCC 27853, 24 h
  Minimal bactericidal concentration (MBC): > 108 µM
  Minimal inhibitory concentration (MIC): > 108 µM
E. coli ATCC 25922; ATCC 25922, 24 h
  Minimal bactericidal concentration (MBC): > 108 µM
  Minimal inhibitory concentration (MIC): 108 µM (≈ 199 µg/mL)
E. faecalis ATCC 29212; ATCC 29212, 24 h
  Minimal bactericidal concentration (MBC): > 108 µM
  Minimal inhibitory concentration (MIC): 54 µM (≈ 99.6 µg/mL)
[11]; ATCC 700603, 24 h
  Minimal bactericidal concentration (MBC): > 108 µM
  Minimal inhibitory concentration (MIC): > 108 µM
S. aureus ATCC 25923
  Minimal bactericidal concentration (MBC): > 108 µM
  Minimal inhibitory concentration (MIC): 108 µM (≈ 199 µg/mL)

## CC(C)C[C@H](NC(=O)[C@H](CCCCN)NC(=O)[C@H](CCCCN)NC(=O)[C@H](CCc1ccccc1)NC(=O)[C@H](CCCNC(=N)N)NC(=O)[C@H](Cc1c[nH]c2ccccc12)NC(=O)[C@H](CCC(N)=O)NC(=O)[C@H](Cc1c[nH]c2ccccc12)NC(=O)[C@H](CCCNC(=N)N)NC(=O)[C@@H](N)CCCNC(=N)N)C(=O)NCC(=O)NCCCC[C@H](NC(=O)CNC(=O)[C@H](CC(C)C)NC(=O)[C@H](CCCCN)NC(=O)[C@H](CCCCN)NC(=O)[C@H](CCc1ccccc1)NC(=O)[C@H](CCCNC(=N)N)NC(=O)[C@H](Cc1c[nH]c2ccccc12)NC(=O)[C@H](CCC(N)=O)NC(=O)[C@H](Cc1c[nH]c2ccccc12)NC(=O)[C@H](CCCNC(=N)N)NC(=O)[C@@H](N)CCCNC(=N)N)C(=O)NCCCCCC(N)=O [peptide 2, (RRWQWR-hF-KKLG)2K-Ahx] (I: H-RRWQWR[hPhe]KKLGK[Ahx]-NH2 / II: H-RRWQWR[hPhe]KKLG; amide I:12-II:C; N-terminus assumed)
[2]
  IC50: 109 µg/mL and 32 µM

## N=C(N)NCCC[C@H](NC(=O)[C@H](Cc1c[nH]c2ccccc12)NC(=O)[C@H](CCC(N)=O)NC(=O)[C@H](Cc1c[nH]c2ccccc12)NC(=O)[C@H](CCCNC(=N)N)NC(=O)[C@H](Cc1c[nH]c2ccccc12)NC(=O)[C@H](CCC(N)=O)NC(=O)[C@H](Cc1c[nH]c2ccccc12)NC(=O)[C@@H](N)CCCNC(=N)N)C(=O)Nc1ccccc1C(N)=O [1-Abz, RWQWRWQWR-(2-Abz)] (H-RWQWRWQWR[2Abz]-NH2)
[1]; [16]
  Minimal bactericidal concentration (MBC): 125 µM (≈ 201 µg/mL)
  Minimal inhibitory concentration (MIC): 125 µM (≈ 201 µg/mL)
[2]; HeLa cells, MTT, read-out: Cytotoxic Activity (IC50)
  IC50: > 200 µg/mL and > 125 µM
[3]; [17]
  Minimal bactericidal concentration (MBC): > 125 µM
  Minimal inhibitory concentration (MIC): > 125 µM
[4]; E. coli clinical isolate 1004
  Minimal bactericidal concentration (MBC): 125 µM (≈ 201 µg/mL)
  Minimal inhibitory concentration (MIC): 62 µM (≈ 99.6 µg/mL)
[5]; [18]
  Minimal bactericidal concentration (MBC): > 125 µM
  Minimal inhibitory concentration (MIC): > 125 µM
[6]; [19]
  Minimal bactericidal concentration (MBC): 125 µM (≈ 201 µg/mL)
  Minimal inhibitory concentration (MIC): 62 µM (≈ 99.6 µg/mL)
[7]; [20]
  Minimal bactericidal concentration (MBC): 125 µM (≈ 201 µg/mL)
  Minimal inhibitory concentration (MIC): 62 µM (≈ 99.6 µg/mL)
[8]; [21]
  Minimal bactericidal concentration (MBC): > 125 µM
  Minimal inhibitory concentration (MIC): > 125 µM
[9]; [22]
  Minimal bactericidal concentration (MBC): > 125 µM
  Minimal inhibitory concentration (MIC): 125 µM (≈ 201 µg/mL)
[12]
  MBC: 125 µM (≈ 201 µg/mL)
[10]; [23]
  Minimal bactericidal concentration (MBC): 125 µM (≈ 201 µg/mL)
  Minimal inhibitory concentration (MIC): 125 µM (≈ 201 µg/mL)
Hemolysis assay; at 200 µg/mL (highest tested concentration), 2 h, 37 °C, read-out: hemolysis
  hemolysis at 2 h: 1.5%
Hemolysis assay; at the lowest MIC concentration, read-out: Percentage of hemolysis
  hemolysis at 2 h: 0.9%
P. aeruginosa ATCC 27853; P. aeruginosa ATCC 27853
  Minimal bactericidal concentration (MBC): > 125 µM
  Minimal inhibitory concentration (MIC): 125 µM (≈ 201 µg/mL)
E. coli ATCC 25922; E. coli ATCC 25922
  Minimal bactericidal concentration (MBC): 62 µM (≈ 99.6 µg/mL)
  Minimal inhibitory concentration (MIC): 62 µM (≈ 99.6 µg/mL)
E. faecalis ATCC 29212; E. faecalis ATCC 29212
  Minimal bactericidal concentration (MBC): > 125 µM
  Minimal inhibitory concentration (MIC): 125 µM (≈ 201 µg/mL)
[11]; K. pneumoniae ATCC 700603
  Minimal bactericidal concentration (MBC): 125 µM (≈ 201 µg/mL)
  Minimal inhibitory concentration (MIC): 125 µM (≈ 201 µg/mL)
